From US7708998B2, “Methods of inhibiting unwanted cell proliferation using hedgehog antagonists” (Curis, Inc., priority 2000, dated 2010) come the findings set out here.

In general, IC50 refers to the concentration needed to halve the response being measured. A low value points to greater potency in that assay.

The first experiment relates to hedgehog signaling in embryonic mouse lungs. The experiment in a line: embryonic mouse lung explants, Q-RT-PCR of gli-1 and Sp-C. Type of experiment: cell-based. The following applies: E13.5 mouse lung explants, Q-RT-PCR normalized to GAPDH. Here is the method:
METHODS: E13.5 embryonic mouse lungs were dissected. Explants were grown exposed to the air-liquid interface in lung explant medium (DMEM based, additives optimized for the culture of mouse lungs) for 67 hrs. They were then processed for quantitative real-time PCR (Q-RT-PCR). Briefly, total ribonucleic acid (RNA) is isolated from the tissue and subjected to reverse transcription to generate DNA. This DNA is amplified in a polymerase chain reaction using gene-specific primers as well as primers for the ubiquitously expressed housekeeping gene GAPDH. The two primer sets are labeled with different fluorophores, allowing for quantification of both signals in the same reaction tube in a real-time PCR machine (TaqMan). When calculating the expression level of gli-1, the specific signal is normalized to the GAPDH signal, which serves as a measure of the total DNA used in the reaction.
METHODS: E13.5 old embryonic mouse lungs were dissected. Explants were grown submerged in lung explant medium (DMEM based, additives optimized for the culture of mouse lungs) for 50 hrs. They were then processed for Q-RT-PCR. Briefly, total ribonucleic acid (RNA) is isolated from the tissue and subjected to reverse transcription to generate DNA. […] The two primer sets are labeled with different fluorophores, allowing for quantification of both signals in the same reaction tube in a real-time PCR machine (TaqMan). […]
Take `C[C@]12CCC(=O)C=C1CC[C@@H]1[C@@H]2[C@@H](O)C[C@@]2(C)[C@H]1CC[C@]2(O)C(=O)CO` [hydrocortisone]: the “surfactant type C (Sp-C) expression” value was “comparable”.

For the next experiment, the system named is Shh signaling pathway in MEFs homozygous for ptc-lacZ. The experiment in a line: β-galactosidase activity in ptc-lacZ mouse embryonic fibroblasts. Type of experiment: cell-based. The following applies: MEFs homozygous for ptc-lacZ (cell line 23-1), normalized to whole protein content.
Text: The Shh signaling pathway can be activated in these fibroblasts in cell culture, and that the level of β-galactosidase activity does reflect the degree of pathway activation.
As for `C[C@H]1CC[C@]2(NC1)O[C@H]1C[C@H]3[C@@H]4CC[C@H]5C[C@@H](O)CC[C@]5(C)[C@H]4CC[C@]3(C)[C@H]1[C@@H]2C` [tomatidine], the β-galactosidase activity result is given as “non-inhibitory”.

Another experiment relates to Shh-induced Gli-transcription. The experiment in a line: Gli-Luc assay in 10T1/2(s12) cells activated with OCT-SHH. The following applies: Gli-Luc response, OCT-SHH 0.3 μg/ml. The format is cell-based. Here is the method:
Compounds to be tested are dissolved in DMSO to a concentration of 10 mM, and stored at −20° C. To activate the Hedgehog pathway in the assay cells, an octylated (lipid-modified) form of the N-terminal fragment of the Sonic Hedgehog protein (OCT-SHH) is used. This N-terminal SHH fragment is produced bacterially.
Compounds may be tested in the “Gli-Luc” assay below, using the cell line 10T(s12), wherein the cells contain a Hedgehog-responsive reporter construct utilizing Luciferase as the reporter gene. In this way, Hedgehog pathway signaling activity can be measured via the Gli-Luc response.
10t1/2(s12) cells are plated in a 96-well micro-titer plate (MTP) at 20,000 cells/well in full medium [DMEM with 10% FBS]. Then plates are placed in the incubator for incubation overnight (O/N), at 37° C. and 5% CO2. After 24 h, the medium is replaced with Luciferase-assay medium (DMEM with 5% FBS). Compounds are thawed and diluted in assay medium at 3:1000 (about 300-fold) resulting in a starting concentration of about 30 μM.
Subsequently, 150 μl of each 30 μM sample is added to the first wells (in triplicate). The MTP samples are then diluted at 3-fold dilutions to a total of seven wells, ultimately resulting in a regiment of seven dilutions in triplicate, for each compound. Next, the protein ligand OCT-SHH is diluted in Luciferase-assay medium and added to each well at a final concentration of 0.3 μg/ml. Plates are then returned to the incubator for further incubation O/N, at 37° C. and 5% CO2. After about 24 h, plates are removed from the incubator and the medium is aspirated/discarded. Wells are washed once with assay buffer [PBS+1 mM Mg^2+ and 1 mM Ca^2+]. Then 50 μl of assay buffer is added to each well. The Luciferase assay reagent is prepared as described by the vendor (LucLite kit from Packard), and 50 μl is added to each well. Plates are incubated at room temperature (RT) for about 30 minutes after which the signals are read, again at RT, on a Topcount (Packard).
For `O=C(NCc1nc2ccccc2c(=O)n1-c1ccc(F)cc1)Nc1ccc(Cl)c(C(F)(F)F)c1` [Compound 5], the IC50 was below 0.1 µM.

For `O=C(NCc1nc2ccccc2c(=O)n1-c1ccc(F)cc1)Nc1cc(Cl)nc(Cl)c1` [Compound 6], the IC50 was below 0.5 µM.

The compound `CC(c1nc2ccccc2c(=O)n1-c1ccc(F)cc1)N(C)C(=O)Nc1cccc(C(F)(F)F)c1` (stereo not drawn) [Compound 11] displayed an IC50 below 5 µM.

`CC(c1nc2ccccc2c(=O)n1-c1ccc(F)cc1)N(Cc1ccco1)C(=O)Nc1cccc(F)c1` (stereo not drawn) [Compound 31] yielded an IC50 below 10 µM.

As for `CC(c1nc2ccccc2c(=O)n1-c1ccc(F)cc1)N(C)C(=O)Nc1ccc([N+](=O)[O-])c(C(F)(F)F)c1` (stereo not drawn) [Compound 32], the IC50 is below 5 µM.

`CCCN(C(=O)Nc1cccc(Cl)c1)C(C)c1nc2ccccc2c(=O)n1-c1ccc(F)cc1` (stereo not drawn) [Compound 34]: the IC50 was below 5 µM.

`CCCN(C(=O)Nc1cccc(C(F)(F)F)c1)C(C)c1nc2ccccc2c(=O)n1-c1ccc(F)cc1` (stereo not drawn) [Compound 36] had an IC50 below 5 µM.

On to `CCCN(C(=O)Nc1cccc(OC)c1)C(C)c1nc2ccccc2c(=O)n1-c1ccc(F)cc1` (stereo not drawn) [Compound 38], for which the IC50 was below 5 µM.

In the case of `CCC(c1nc2ccccc2c(=O)n1-c1ccc(C)cc1)N(CCc1ccccc1)C(=O)CCCCF` (stereo not drawn) [Compound 39], the IC50 is below 5 µM.

`CCCCc1ccc(C(=O)N(Cc2ccccc2)C(CC)c2nc3ccccc3c(=O)n2-c2ccc(C)cc2)cc1` (stereo not drawn) [Compound 40] registered an IC50 below 10 µM.

Consider `CCCCCCCCC(=O)N(CCCCC)C(C)c1nc2ccccc2c(=O)n1-c1ccccc1` (stereo not drawn) [Compound 41], for which the IC50 is below 10 µM.

On to `CCC(=O)N1CCN(C(CC)c2nc3ccccc3c(=O)n2-c2ccc(C)cc2)C(C)C1` (stereo not drawn) [Compound 42], for which the IC50 was below 5 µM.

On to `CC(c1nc2ccccc2c(=O)n1-c1ccc(F)cc1)N1CCN(C(=O)Nc2ccc(Cl)c(Cl)c2)CC1` (stereo not drawn) [Compound 43], for which the IC50 is below 10 µM.

The compound `O=C(NCc1nc2ccccc2c(=O)n1-c1ccc(F)cc1)Nc1cccc(C(F)(F)F)c1` [Compound 44] had an IC50 below 1 µM.

Turning to `CCC(c1nc2ccccc2c(=O)[nH]1)N1CCN(C(=O)Nc2ccc(Cl)c(Cl)c2)C(C)C1` (stereo not drawn) [Compound 45], the IC50 is below 5 µM.

`CCC(c1nc2ccccc2c(=O)[nH]1)N1CCN(C(=O)c2ccc(-c3ccccc3)cc2)C(C)C1` (stereo not drawn) [Compound 46] displayed an IC50 below 0.5 µM.

`CCCN(CCC(=O)NC1CCCc2ccccc21)C(=O)c1cc(OC)cc(OC)c1` (stereo not drawn) [Compound 47] yielded an IC50 below 5 µM.

`CCC(C)N(CCC(=O)NC1CCCc2ccccc21)C(=O)c1cccc2ccccc12` (stereo not drawn) [Compound 48] came in with an IC50 below 0.5 µM.

The compound `CCC(C)N(CCC(=O)NC1CCCc2ccccc21)C(=O)COc1ccc(Cl)cc1` (stereo not drawn) [Compound 49] came in with an IC50 below 1 µM.

On to `O=C(Cc1cccc(C(F)(F)F)c1)NCCc1nc2ccccc2c(=O)n1-c1ccc(F)cc1` [Compound 50], for which the IC50 was below 1 µM.

As for `CC(c1nc2ccccc2c(=O)n1-c1ccc(F)cc1)N(C)C(=O)Nc1cccc(C#N)c1` (stereo not drawn) [Compound 51], the IC50 was below 5 µM.

In turn, `CC(c1nc2ccccc2c(=O)n1-c1ccc(F)cc1)N(C)C(=O)Nc1cccc(SC(F)(F)F)c1` (stereo not drawn) [Compound 52] returned an IC50 below 1 µM.

The compound `CC(c1nc2ccccc2c(=O)n1-c1ccc(F)cc1)N(C)C(=O)Nc1ccc(Cl)c(Cl)c1` (stereo not drawn) [Compound 53] came in with an IC50 below 1 µM.

`CC(c1nc2ccccc2c(=O)n1-c1ccc(F)cc1)N(C)C(=O)Nc1ccc(C(F)(F)F)cc1` (stereo not drawn) [Compound 54] had an IC50 below 5 µM.

Take `CC(c1nc2ccccc2c(=O)n1-c1ccc(F)cc1)N(C)C(=O)Nc1cccc(F)c1` (stereo not drawn) [Compound 55]: the IC50 was below 5 µM.

Compound `CC(c1nc2ccccc2c(=O)n1-c1ccc(F)cc1)N(C)C(=O)Nc1ccc(-c2ccccc2)cc1` (stereo not drawn) [Compound 56] had an IC50 below 10 µM.

Compound `CC(C)c1cccc(NC(=O)N(C)C(C)c2nc3ccccc3c(=O)n2-c2ccc(F)cc2)c1` (stereo not drawn) [Compound 57] had an IC50 below 10 µM.

For `CC(c1nc2ccccc2c(=O)n1-c1ccc(F)cc1)N(C)C(=O)Nc1cc(Cl)nc(Cl)c1` (stereo not drawn) [Compound 58], the IC50 was below 5 µM.

As for `Cc1c(NC(=O)N(C)C(C)c2nc3ccccc3c(=O)n2-c2ccc(F)cc2)cccc1[N+](=O)[O-]` (stereo not drawn) [Compound 59], the IC50 is below 5 µM.

The compound `CC(c1nc2ccccc2c(=O)n1-c1ccc(F)cc1)N(C)C(=O)Nc1ccc(SC(F)(F)F)cc1` (stereo not drawn) [Compound 60] yielded an IC50 below 5 µM.

For `CC(c1nc2ccccc2c(=O)n1-c1ccc(F)cc1)N(C)C(=O)Nc1ccc(Cl)c(C(F)(F)F)c1` (stereo not drawn) [Compound 61], the half-inhibitory concentration (IC50) was below 1 µM.

Compound `CC(c1nc2ccccc2c(=O)n1-c1ccc(F)cc1)N(C)C(=O)Nc1ccc([N+](=O)[O-])c(Cl)c1` (stereo not drawn) [Compound 62] showed an IC50 below 1 µM.

Turning to `CCOC(=O)c1ccccc1NC(=O)N(C)C(C)c1nc2ccccc2c(=O)n1-c1ccc(F)cc1` (stereo not drawn) [Compound 63], the IC50 is below 10 µM.

`CC(c1nc2ccccc2c(=O)n1-c1ccc(F)cc1)N(C)C(=O)Nc1ccc([N+](=O)[O-])cc1Cl` (stereo not drawn) [Compound 64] showed an IC50 below 10 µM.

`CCOOC(=O)c1cccc(NC(=O)N(C)C(C)c2nc3ccccc3c(=O)n2-c2ccc(F)cc2)c1` (stereo not drawn) [Compound 65] had an IC50 below 10 µM.

`CC(c1nc2ccccc2c(=O)n1-c1ccc(F)cc1)N(C)C(=O)Nc1ccc(Cl)cc1[N+](=O)[O-]` (stereo not drawn) [Compound 66] registered an IC50 below 10 µM.

In turn, `Cc1c(NC(=O)NCc2nc3ccccc3c(=O)n2-c2ccc(F)cc2)cccc1SC(F)(F)F` [Compound 67] returned a concentration for half-maximal inhibition (IC50) below 5 µM.

Take `O=C(NCc1nc2ccccc2c(=O)n1-c1ccc(F)cc1)Nc1ccc(Cl)c(Cl)c1` [Compound 68]: the IC50 was below 1 µM.

On to `O=C(NCc1nc2ccccc2c(=O)n1-c1ccc(F)cc1)Nc1ccc(Cl)c([N+](=O)[O-])c1` [Compound 69], for which the IC50 is below 0.5 µM.

`COc1cccc(NC(=O)NCc2nc3ccccc3c(=O)n2-c2ccc(F)cc2)c1C` [Compound 71] registered an IC50 below 10 µM.

`CC(NC(=O)Nc1cccc(C(F)(F)F)c1)c1nc2ccccc2c(=O)n1-c1ccc(F)cc1` (stereo not drawn) [Compound 73] registered an IC50 below 5 µM.

As for `O=C(NCCCc1nc2ccccc2c(=O)n1-c1ccc(F)cc1)Nc1cccc(C(F)(F)F)c1` [Compound 74], the IC50 is below 5 µM.

`O=C(Nc1cccc(C(F)(F)F)c1)NC(c1nc2ccccc2c(=O)n1-c1ccc(F)cc1)C1CC1` (stereo not drawn) [Compound 75] yielded an IC50 below 5 µM.
